# System: GL-26 GBM cells
# Test: PI staining-based apoptosis FACS analysis, GL-26 cells
# Conditions: TMZ at 250 μM, alone or with mpEVs (50 pmol)
# Text: We evaluated the therapeutic potential of miRNA-loaded mpEVs (50 pmol) in GL-26 cells in combination with TMZ and quantified the chemosensitizing effects of the miRNA-loaded mpEVs using PI staining-based FACS analysis (FIG. 13).
# To investigate the chemosensitizing effect of miRNAs-loaded mpEVs in the absence and presence of TMZ at different concentrations, we seeded the U87 glioma cells at a density of 1×10^5 cells per well in 12-well plates. Next, we treated the cells with mpEVs from control and CXCR4-NSCs with and without loaded miRNAs. On the following day, we treated the cells with TMZ at different concentrations (0 μM, 250 μM, and 500 μM) for each kind of EV. At 24 h after TMZ administration, we collected the cells and fixed in ice cold 70% ethanol at −20° C. for 30 min. We then washed the fixed cells once with 2 ml of PBS and stained with PI (15 nM) in the presence of RNase A (10 mg/ml) and 0.01% Triton-X100 (Life Technologies, Grand Island, NY, USA). […] Likewise, the chemosensitizing effect of miRNA loaded mpEVs for TMZ therapy was also investigated against GL26 cells by using a similar procedure.
smiles,measurement,value
"Cn1nnc2c(C(N)=O)ncn2c1=O [TMZ, temozolomide]",apoptotic cells,13.9%
